Reference: ChEMBL document CHEMBL3880382, “TRH-like peptide derivatives as inhibitors of the TRH-degrading ectoenzyme” (2010)
One block for each molecule: values may come before it. Active and inactive are the calls of the source. The rule behind the calls is not given here. Non-standard residues stand in square brackets, D forms with d. Residues, ends and D or L forms follow the SMILES beside them. *: point of attachment. pGlu = O=C1CC[C@@H](C(=O)O)N1; NHBn = c1ccc(CN*)cc1

How the values were obtained:
[1] = biological target: Thyrotropin releasing hormone degrading enzyme (Sus scrofa, UniProt A0A287AP33); assay: Inhibition of pig brain TRH-DE using Glp-His-ProAMC as substrate by DPP-4-based continuous fluorometric method
[2] = biological target: T1, Thyrotropin releasing hormone degrading enzyme (Sus scrofa) (UniProt A0A287AP33); assay: Substrate activity at pig brain TRH-DE assessed as retention time at 1 mM incubated for 18 hrs by HPLC analysis
[3] = biological target: T1, Thyrotropin releasing hormone degrading enzyme (Sus scrofa); assay: Substrate activity at pig brain TRH-DE assessed as Vmax to Km ratio
[4] = biological target: T1, Thyrotropin releasing hormone degrading enzyme (Sus scrofa); assay: Substrate activity at pig brain TRH-DE assessed as rate of hydrolysis at 1 mM incubated for 18 hrs by HPLC analysis
[5] = biological target: T1, Thyrotropin releasing hormone degrading enzyme (Sus scrofa); assay: Inhibition of pig brain TRH-DE at 1 mM using Glp-His-ProAMC as substrate by DPP-4-based continuous fluorometric method
Rattus norvegicus [6] = assay: In vivo inhibition of TRH-DE in cannulated Wistar rat assessed as TRH-mediated increase in locomotion at 10 mg/kg, ip measured every 5 mins for 30 secs during 40 mins of observation period; assay type: functional, organism-based
[7] = biological target: T2, Thyrotropin-releasing hormone receptor (Rattus norvegicus, UniProt Q01717); assay: Displacement of [3H]-3MeHis-TRH from TRH receptor in Sprague-Dawley rat cortical membranes
T2 sequence (Q01717 whole entry): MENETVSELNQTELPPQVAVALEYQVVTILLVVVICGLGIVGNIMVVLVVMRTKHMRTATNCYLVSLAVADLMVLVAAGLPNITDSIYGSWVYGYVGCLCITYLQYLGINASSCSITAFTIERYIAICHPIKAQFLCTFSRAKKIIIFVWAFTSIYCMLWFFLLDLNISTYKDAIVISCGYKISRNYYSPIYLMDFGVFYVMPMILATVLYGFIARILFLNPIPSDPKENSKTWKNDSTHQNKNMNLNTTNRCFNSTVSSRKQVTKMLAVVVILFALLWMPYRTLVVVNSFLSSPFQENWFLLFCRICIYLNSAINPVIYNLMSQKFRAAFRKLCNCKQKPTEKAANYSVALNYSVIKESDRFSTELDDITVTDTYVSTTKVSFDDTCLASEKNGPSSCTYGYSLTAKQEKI

[8] = biological target: T1, Thyrotropin releasing hormone degrading enzyme (Sus scrofa); assay: Reversible inhibition of pig brain TRH-DE using Glp-His-ProAMC as substrate at 160 uM preincubated for 75 mins by DPP-4-based continuous fluorometric method
[9] = biological target: T1, Thyrotropin releasing hormone degrading enzyme (Sus scrofa); assay: Competitive inhibition of pig brain TRH-DE at 12.5 to 50 uM using Glp-His-ProAMC as substrate by Lineweaver-Burk analysis
Rattus norvegicus [10] = assay: In vivo inhibition of TRH-DE in cannulated Wistar rat assessed as increase in TRH-mediated locomotion at 5 ug in 1 ul, icv after 30 mins; assay type: functional, organism-based
[11] = biological target: T1, Thyrotropin releasing hormone degrading enzyme (Sus scrofa); assay: Reversible inhibition of pig brain TRH-DE using Glp-His-ProAMC as substrate at 400 uM preincubated for 75 mins by DPP-4-based continuous fluorometric method

T1 sequence (A0A287AP33 as listed by the source): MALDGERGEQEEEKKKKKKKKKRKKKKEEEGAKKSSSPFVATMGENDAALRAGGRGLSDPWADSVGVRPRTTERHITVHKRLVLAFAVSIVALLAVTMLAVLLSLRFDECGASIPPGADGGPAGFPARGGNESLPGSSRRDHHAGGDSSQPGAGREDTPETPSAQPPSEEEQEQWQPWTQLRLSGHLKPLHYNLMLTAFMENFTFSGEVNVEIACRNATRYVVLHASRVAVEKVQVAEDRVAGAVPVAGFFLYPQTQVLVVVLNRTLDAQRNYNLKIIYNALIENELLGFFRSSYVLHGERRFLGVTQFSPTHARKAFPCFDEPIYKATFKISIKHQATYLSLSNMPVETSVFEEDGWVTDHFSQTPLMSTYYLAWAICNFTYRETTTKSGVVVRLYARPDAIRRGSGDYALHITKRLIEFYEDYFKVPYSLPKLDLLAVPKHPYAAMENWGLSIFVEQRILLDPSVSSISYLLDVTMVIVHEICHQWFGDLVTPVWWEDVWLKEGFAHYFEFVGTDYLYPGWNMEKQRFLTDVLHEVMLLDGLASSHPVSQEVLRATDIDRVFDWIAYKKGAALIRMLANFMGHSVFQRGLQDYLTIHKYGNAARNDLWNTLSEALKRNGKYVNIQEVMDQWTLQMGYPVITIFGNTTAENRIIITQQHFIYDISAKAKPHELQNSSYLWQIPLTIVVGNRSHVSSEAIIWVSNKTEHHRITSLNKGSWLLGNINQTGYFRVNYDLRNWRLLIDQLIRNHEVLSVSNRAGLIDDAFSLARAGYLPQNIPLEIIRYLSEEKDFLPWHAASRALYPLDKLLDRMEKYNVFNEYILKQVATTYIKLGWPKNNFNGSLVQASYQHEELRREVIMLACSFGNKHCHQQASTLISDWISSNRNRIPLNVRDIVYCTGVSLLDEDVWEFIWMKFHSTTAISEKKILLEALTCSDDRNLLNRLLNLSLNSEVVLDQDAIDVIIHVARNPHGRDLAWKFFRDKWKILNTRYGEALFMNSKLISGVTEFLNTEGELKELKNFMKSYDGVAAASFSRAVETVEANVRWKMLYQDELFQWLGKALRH
Chain of Thyrotropin releasing hormone degrading enzyme (A0A287AP33 whole entry): as the sequence (A0A287AP33 as listed by the source) above

Structure (SMILES): NC(=O)C[C@H](NC(=O)[C@@H]1CCC(=O)N1)C(=O)N1CCC[C@H]1C(=O)Nc1ccccc1CO
Ki [1]: 20.6 µM | Retention time [2]: 11.9 min

Structure (SMILES): Cc1cc(=O)oc2cc(NC(=O)[C@@H]3CCCN3C(=O)[C@H](Cc3cnc[nH]3)NC(=O)[C@@H]3CCC(=O)N3)ccc12
Vmax/Km [3]: 0.04 U/mg/µM

Structure (SMILES): NC(=O)[C@@H]1CCCN1C(=O)[C@H](Cc1c[nH]cn1)NC(=O)[C@@H]1CCC(=O)N1
Activity [4]: 2.54 U/mg | Vmax/Km [3]: 0.08 U/mg/µM

Structure (SMILES): O=C1CC[C@@H](C(=O)N[C@@H](Cc2cnc[nH]2)C(=O)N2CCC[C@H]2C(=O)O)N1
Activity [4]: 3.38 U/mg | Vmax/Km [3]: 0.01 U/mg/µM

Structure (SMILES): C[C@H](NC(=O)[C@@H]1CCC(=O)N1)C(=O)N1CCC[C@H]1C(N)=O ([pGlu]-Ala-Pro-NH2)
Activity [4]: 0.02 U/mg

Structure (SMILES): N=C(N)NCCC[C@H](NC(=O)[C@@H]1CCC(=O)N1)C(=O)N1CCC[C@H]1C(N)=O ([pGlu]-Arg-Pro-NH2)
Activity [4]: 0.41 U/mg

Structure (SMILES): NC(=O)[C@@H]1CCCN1C(=O)CNC(=O)[C@@H]1CCC(=O)N1 ([pGlu]-Gly-Pro-NH2)
inhibition [5]: 8%

Structure (SMILES): CC[C@H](C)[C@H](NC(=O)[C@@H]1CCC(=O)N1)C(=O)N1CCC[C@H]1C(N)=O ([pGlu]-Ile-Pro-NH2)
Activity [4]: 0.06 U/mg

Further lines, with some results ahead:

Ki [1]: 22.4 µM | Retention time [2]: 18.4 min
Structure (SMILES): NC(=O)C[C@H](NC(=O)[C@@H]1CCC(=O)N1)C(=O)N1CCC[C@H]1C(=O)NC(=O)C1CCCc2ccccc21 (some centres not stated)

Retention time [2]: 15 min
Structure (SMILES): COc1ccc(NC(=O)[C@@H]2CCCN2C(=O)[C@H](CC(N)=O)NC(=O)[C@@H]2CCC(=O)N2)cc1

Retention time [2]: 15.9 min
Structure (SMILES): COc1cccc(NC(=O)[C@@H]2CCCN2C(=O)[C@H](CC(N)=O)NC(=O)[C@@H]2CCC(=O)N2)c1

Retention time [2]: 15.4 min
Structure (SMILES): COc1ccccc1NC(=O)[C@@H]1CCCN1C(=O)[C@H](CC(N)=O)NC(=O)[C@@H]1CCC(=O)N1

inhibition [5]: 97% | Ki [7]: 7.08 µM | inhibition [8]: Active | inhibition [9]: Active
Structure (SMILES): NC(=O)C[C@H](NC(=O)[C@@H]1CCC(=O)N1)C(=O)N1CCC[C@H]1C(N)=O ([pGlu]-Asn-Pro-NH2)
inhibition (Rattus norvegicus [6]): Active | inhibition (Rattus norvegicus [10]): Active

Retention time [2]: 14.3 min
Structure (SMILES): NC(=O)C[C@H](NC(=O)[C@@H]1CCC(=O)N1)C(=O)N1CCC[C@H]1C(=O)NCc1ccccc1 ([pGlu]-Asn-Pro-NHBn)

inhibition [5]: 1%
Structure (SMILES): NC(=O)[C@@H]1CCCN1C(=O)[C@H](CC(=O)O)NC(=O)[C@@H]1CCC(=O)N1 ([pGlu]-Asp-Pro-NH2)

inhibition [11]: Active | inhibition [5]: 83%
Structure (SMILES): NC(=O)CC[C@H](NC(=O)[C@@H]1CCC(=O)N1)C(=O)N1CCC[C@H]1C(N)=O ([pGlu]-Gln-Pro-NH2)

inhibition [5]: 17%
Structure (SMILES): NC(=O)[C@@H]1CCCN1C(=O)[C@H](CCC(=O)O)NC(=O)[C@@H]1CCC(=O)N1 ([pGlu]-Glu-Pro-NH2)
